In patent US9937199B2, “Materials and methods for preventing and treating anastomotic leaks” (THE UNIVERSITY OF CHICAGO, priority 2012, dated 2018):
In brackets after ≈: the same amount, converted by molar mass.

Tests used:
P. aeruginosa MPAO1-P2 = experiment: Antibiotic resistance of P2 strain; format: cell-based, Pseudomonas aeruginosa; conditions: for fold higher resistance of P2 strain compared to P1 strain: P2 vs P1
Experimental: FIG. 11. Chloramphenicol resistance of P1 and P2 strains. Strains were cultured in TSB containing 250 μg/ml chloramphenicol and grown in 96-well plate (150 μl/well, shaking at 150 rpm, 37° C. Cell density was measured on Plate Reader at OD 600 nm. Values represent the mean of triplicate cultures.

P. aeruginosa MPAO1-P1 = experiment: Antibiotic resistance of P1 strain; format: cell-based; conditions: Pseudomonas aeruginosa, MPAO1P1

SMILES | fold higher resistance of P2 strain compared to P1 strain (P. aeruginosa MPAO1-P2) | MIC (P. aeruginosa MPAO1-P2; Pseudomonas aeruginosa, MPAO1P2, P2 strain) [µg/mL] | MIC (P. aeruginosa MPAO1-P1) [µg/mL]
O=C(N[C@H](CO)[C@H](O)c1ccc([N+](=O)[O-])cc1)C(Cl)Cl [chloramphenicol] | about 6 fold |  | 
CCn1cc(C(=O)O)c(=O)c2cc(F)c(N3CCNCC3)cc21 [norfloxacin] | 10 fold | 3.8 (≈ 11.9 µM) | 0.38 (≈ 1.19 µM)
